What was measured:
[1] = test system: IGROV-1 xenografts (peritoneal ovarian adenocarcinoma of human origin); test: Antitumor activity on IGROV-1 tumors after i.p. administration; type: in vivo, Nude mice; conditions: for Survival at D98: survivors/5 mice
Description: 10^7 viable IGROV-1 cells were inoculated i.p. into Nude mice. On day 15 after inoculation of tumor cells, the mice were given the substances tested by i.p. administration.
The control group was given only a solution of 5% glucose or empty microspheres. Each group was made up of 5 mice. Isoflurane was used to anesthetize the animals before implantation of the tumor or sacrifice of the animals.
(§1) The experiments were stopped when the size of the tumor reached 2 000 mm^3 or when the period after the final treatment exceeded 60 days. Mice carrying progressive tumors were sacrificed. The mice were weighed and examined twice a week, and the weight of the sick animals was compared with the weight of three healthy mice (no tumor, no treatment, of the same batches). The animals were monitored for 98 days.

[2] = test system: PC-3 human prostate tumors (xenografts); test: Antitumor activity on PC-3 human prostate tumors after i.t. administration; type: in vivo, Nude mice
Method: 10^7 PC-3 cells were inoculated on the flank of male Nude mice. The treatment began from a tumor size of 210-266 mm^3 (day 30).
The volume of the test substances administered to the PC-3 tumors was equivalent to the tumor volume (1 μl of treatment per 1 mm^3 of tumor).
as §1

O=C1[O][Pt]2([NH][C@@H]3CCCC[C@H]3[NH]2)[O]C1=O [Oxaliplatin, oxaliplatin]
T/C % (median survival time treated / untreated control x 100) ([1]; i.p., 6 mg/kg oxaliplatin administered 3 times every four days, treatment from day 15): 85.71% | Survival at D98 ([1]; i.p., 6 mg/kg oxaliplatin administered 3 times every four days): 0/5 | antitumor activity (in words) ([1]; i.p., dose of 15 mg base/kg oxaliplatin): did not show any significant antitumor activity | T/C % (median survival time treated / untreated control x 100) ([1]; single i.p. dose, 15 mg/kg oxaliplatin, day 15): 102.38% | Survival at D98 ([1]; single i.p. dose, 15 mg/kg oxaliplatin): 1/5 | T/C % ([2]; i.v., 6 mg/kg oxaliplatin administered three times every four days): 80.41% | T/C % ([2]; single i.t. injection, 30 mg/kg oxaliplatin, 30 mg/kg): 5.24% | T/C % ([2]; single i.v. injection, 15 mg/kg oxaliplatin): 55.47%

Reference: US20040126431A1, “Method for preparing microspheres containing a water-soluble substance” (priority 2000, published 2004)
